The values below come from US8921405B2, “Compounds” (Orexo AB, priority 2009, dated 2014).

Each structure is given as a SMILES string. pIC50: −log10 of the molar value.

This assay concerns the target T1, recombinant human mPGES-1 (Homo sapiens, UniProt O14684).
T1 construct: made in house; host or cells: Rosetta E. coli (membrane/microsome fraction)
T1 sequence (O14684 1-152): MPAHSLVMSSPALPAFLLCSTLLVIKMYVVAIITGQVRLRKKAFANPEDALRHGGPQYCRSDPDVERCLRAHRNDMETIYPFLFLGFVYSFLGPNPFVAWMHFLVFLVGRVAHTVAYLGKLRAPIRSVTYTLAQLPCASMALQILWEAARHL
The assay is described as follows: mPGES-1 HTRF assay (inhibition of PGE2 formation from PGH2). The assay is classed as biochemical. To be noted: HTRF assay. A digest of the protocol:
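Microsomes of E. coli expressing human mPGES-1, in 0.1 M KPi pH 7.4 with 2.5 mM GSH, preincubated 25 min at room temperature with inhibitor, then given PGH2 for 1 min before FeCl2 acidic stop. PGE2 quantified by HTRF (665/620 nm ratio) against synthetic PGE2 standard curve; percent inhibition versus controls.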
As to `CN(C)CCn1c(Nc2cc(CNC(=O)C3(C(F)(F)F)CC3)ccc2Cl)nc2cc(C(=O)Nc3ccc(Br)cc3)ccc21` [Example 70, N-(4-Bromo-phenyl)-2-(2-chloro-5-{[(1-trifluoromethyl-cyclopropanecarbonyl)-amino]-methyl}-phenylamino)-1-(2-(dimethylamino)ethyl)-1H-benzimidazole-5-carboxylic acid amide], the pIC50 is 8.52.

For the compound `COCCn1c(Nc2cc(CNC(=O)C3(C(F)(F)F)CC3)ccc2Cl)nc2cc(C(=O)Nc3ccc(Br)cc3)ccc21` [Example 71, N-(4-Bromo-phenyl)-2-(2-chloro-5-{[(1-trifluoromethyl-cyclopropanecarbonyl)-amino]-methyl}-phenylamino)-1-(2-methoxyethyl)-1H-benzimidazole-5-carboxylic acid amide], the pIC50 was 8.70.

On to `Cn1c(Nc2cc(CNC(=O)C(C)(F)F)ccc2Cl)nc2cc(C(=O)Nc3ccc(Br)cc3)c(OCC(F)F)cc21` [Example 72, N-(4-Bromo-phenyl)-2-(2-chloro-5-{[(1,1-difluoro-ethylcarbonyl)-amino]-methyl}-phenylamino)-6-(2,2-difluoro-ethoxy)-1-methyl-1H-benzimidazole-5-carboxylic acid amide], for which the pIC50 was 8.52.

On to `CC(C(=O)NCc1ccc(Cl)c(Nc2nc3cc(C(=O)Nc4ccc(Br)cc4)c(OCC(F)F)cc3n2C)c1)C(F)(F)F` (stereo not shown) [Example 73, N-(4-Bromo-phenyl)-2-(2-chloro-5-{[(1-trifluoromethyl-ethyl-carbonyl)-amino]-methyl}-phenylamino)-6-(2,2-difluoro-ethoxy)-1-methyl-1H-benzimidazole-5-carboxylic acid amide], for which the pIC50 was 8.52.

Consider `Cn1c(Nc2cc(CNC(=O)c3c(F)cccc3Cl)ccc2Cl)nc2cc(C(=O)Nc3ccc(Br)cc3)c(OCC(F)F)cc21` [Example 74, N-(4-Bromo-phenyl)-2-(2-chloro-5-{[(2-chloro-6-fluorophenylcarbonyl)-amino]-methyl}-phenylamino)-6-(2,2-difluoro-ethoxy)-1-methyl-1H-benzimidazole-5-carboxylic acid amide], for which the pIC50 is 8.40.

As to `Cn1c(Nc2cc(CNC(=O)C(C)(N)C(F)(F)F)ccc2Cl)nc2cc(C(=O)Nc3ccc(Br)cc3)c(OCC(F)F)cc21` (stereo not shown) [Example 75, N-(4-Bromo-phenyl)-2-(2-chloro-5-{[(1-amino-1-trifluoromethyl-ethyl-carbonyl)-amino]-methyl}-phenylamino)-6-(2,2-difluoro-ethoxy)-1-methyl-1H-benzimidazole-5-carboxylic acid amide], the pIC50 was 8.52.

Regarding `Cn1c(Nc2cc(CNC(=O)C3(O)CC3)ccc2Cl)nc2cc(C(=O)Nc3ccc(Br)cc3)c(OCC(F)F)cc21` [Example 76, N-(4-Bromo-phenyl)-2-(2-chloro-5-{[(1-hydroxycyclopropanecarbonyl)-amino]-methyl}-phenylamino)-6-(2,2-difluoro-ethoxy)-1-methyl-1H-benzimidazole-5-carboxylic acid amide], the pIC50 is 8.52.

Turning to `Cn1c(Nc2cc(CNC(=O)C(C)(C)C(F)(F)F)ccc2Cl)nc2cc(C(=O)Nc3ccc(Br)cc3)c(OCC(F)F)cc21` [Example 77, N-(4-Bromo-phenyl)-2-(2-chloro-5-{[(1-methyl-1-trifluoromethyl-ethylcarbonyl)-amino]-methyl}-phenylamino)-6-(2,2-difluoro-ethoxy)-1-methyl-1H-benzimidazole-5-carboxylic acid amide], the negative-log IC50 (pIC50) is 8.40.

Regarding `CC(=O)NCc1ccc(Cl)c(Nc2nc3cc(C(=O)Nc4ccc(Br)cc4)c(OCC(F)F)cc3n2C)c1` [Example 79, N-(4-Bromo-phenyl)-2-(2-chloro-5-{[(methylcarbonyl)-amino]-methyl}-phenylamino)-6-(2,2-difluoro-ethoxy)-1-methyl-1H-benzimidazole-5-carboxylic acid amide], the pIC50 is 8.40.

Turning to `Cn1c(Nc2cc(CNC(=O)C3CC3)ccc2Cl)nc2cc(C(=O)Nc3ccc(Br)cc3)c(OCC(F)F)cc21` [Example 80, N-(4-Bromo-phenyl)-2-(2-chloro-5-{[(cyclopropylcarbonyl)-amino]-methyl}-phenylamino)-6-(2,2-difluoro-ethoxy)-1-methyl-1H-benzimidazole-5-carboxylic acid amide], the negative logarithm of the IC50 (pIC50) is 8.05.

Turning to `Cn1c(Nc2cc(CN[S+]([O-])C(C)(C)C)ccc2Cl)nc2cc(C(=O)Nc3ccc(Br)cc3)c(OCC(F)F)cc21` (stereo not shown) [Example 81, N-(4-Bromo-phenyl)-2-(2-chloro-5-{[(tert-butylsulfinyl)-amino]-methyl}-phenylamino)-6-(2,2-difluoro-ethoxy)-1-methyl-1H-benzimidazole-5-carboxylic acid amide], the negative-log IC50 (pIC50) is 8.70.

For the compound `Cn1c(Nc2cc(CNS(=O)(=O)C(C)(C)C)ccc2Cl)nc2cc(C(=O)Nc3ccc(Br)cc3)c(OCC(F)F)cc21` [Example 82, N-(4-Bromo-phenyl)-2-(2-chloro-5-{[(tert-butylsulfonyl)-amino]-methyl}-phenylamino)-6-(2,2-difluoro-ethoxy)-1-methyl-1H-benzimidazole-5-carboxylic acid amide], the pIC50 is 8.52.

Turning to `Cn1c(Nc2cc(CNC(=O)C3(C(F)(F)F)CC3)ccc2C(F)(F)F)nc2cc(C(=O)Nc3ccc(Br)cc3)c(OCC(F)F)cc21` [Example 83, N-(4-Bromo-phenyl)-2-(2-trifluoromethyl-5-{[(1-trifluoromethyl-cyclopropanecarbonyl)-amino]-methyl}-phenylamino)-6-(2,2-difluoro-ethoxy)-1-methyl-1H-benzimidazole-5-carboxylic acid amide], the pIC50 was 8.52.

Consider `Cn1c(Nc2cc(CNC(=O)C3(C(F)(F)F)CC3)c(F)cc2Cl)nc2cc(C(=O)N[C@H]3CC[C@H](C(F)(F)F)CC3)c(OCC(F)F)cc21` [Example 84, 2-(2-Chloro-4-fluoro-5-{[(1-(trifluoromethyl)cyclopropanecarbonyl)amino]methyl}-phenylamino)-6-(2,2-difluoroethoxy)-1-methyl-N-(trans-4-trifluoromethyl-cyclohex-1-yl)-1 H-benzo[d]imidazole-5-carboxamide], for which the pIC50 was 8.40.

Consider `Cn1c(Nc2cc(CNC(=O)C3(C(F)(F)F)CC3)c(F)cc2Cl)nc2cc(C(=O)Nc3ccc(Br)cc3)c(OCC(F)F)cc21` [Example 85, N-(4-Bromophenyl)-2-(2-chloro-4-fluoro-5-{[(1-trifluoromethyl-cyclopropanecarbonyl)amino]methyl}phenylamino)-6-(2,2-difluoroethoxy)-1-methyl-1H-benzo[d]imidazole-5-carboxamide], for which the negative-log IC50 (pIC50) is 8.70.

As for `Cn1c(Nc2cc(CNC(=O)C(C)(C)C)ccc2Cl)nc2cc(C(=O)Nc3ccc(F)c(Cl)c3)c(OCC(F)F)cc21` [Example 86, N-(3-Chloro-4-fluoro-phenyl)-2-(2-chloro-5-{[(tert-butylcarbonyl)-amino]-methyl}-phenylamino)-6-(2,2-difluoro-ethoxy)-1-methyl-1H-benzimidazole-5-carboxylic acid amide], the pIC50 is 9.00.

For the compound `Cn1c(Nc2cc(CNC(=O)C(C)(C)C)ccc2Cl)nc2cc(C(=O)NCC3CC3(C)C)c(OCC(F)F)cc21` (stereo not shown) [Example 88, N-(2,2-Dimethylcyclopropyl-methyl)-2-(2-chloro-5-{[(tert-butylcarbonyl)-amino]-methyl}-phenylamino)-6-(2,2-difluoro-ethoxy)-1-methyl-1H-benzimidazole-5-carboxylic acid amide], the negative logarithm of the IC50 (pIC50) is 8.70.

On to `Cn1c(Nc2cc(CNC(=O)C(C)(C)C)ccc2Cl)nc2cc(C(=O)NCC3CCC3)c(OCC(F)F)cc21` [Example 89, N-(Cyclobutylmethyl)-2-(2-chloro-5-{[(tert-butylcarbonyl)-amino]-methyl}-phenylamino)-6-(2,2-difluoro-ethoxy)-1-methyl-1H-benzimidazole-5-carboxylic acid amide], for which the pIC50 was 8.70.

As to `Cn1c(Nc2cc(CNC(=O)C(C)(C)C)ccc2Cl)nc2cc(C(=O)NCC#Cc3ccccc3)c(OCC(F)F)cc21` [Example 90, N-(3-Phenylpropargyl)-2-(2-chloro-5-{[(tert-butylcarbonyl)-amino]-methyl}-phenylamino)-6-(2,2-difluoro-ethoxy)-1-methyl-1H-benzimidazole-5-carboxylic acid amide], the pIC50 was 9.00.

For the compound `COc1cc2[nH]c(Nc3cc(CNC(=O)OC(C)(C)C)ccc3C(F)(F)F)nc2cc1C(=O)N[C@H]1CC[C@H](C(F)(F)F)CC1` [Example 91, 2-({5-[(tert.Butoxycarbonyl)amino]methyl}-2-trifluoromethyl-phenylamino)-6-methoxy-N-(trans-4-trifluoromethyl-cyclohex-1-yl)-1H-benzo[d]imidazole-5-carboxamide], the pIC50 is 8.40.

On to `COc1cc2[nH]c(Nc3cc(CNC(=O)C(N)C(F)(F)F)ccc3C(F)(F)F)nc2cc1C(=O)N[C@H]1CC[C@H](C(F)(F)F)CC1` (stereo partly drawn) [Example 92, 2-({5-[(2-Amino-3,3,3-trifluoro-propionyl)amino]methyl}-2-trifluoromethyl-phenylamino)-6-methoxy-N-(trans-4-trifluoromethyl-cyclohex-1-yl)-1H-benzo[d]imidazole-5-carboxamide], for which the pIC50 was 8.15.

In the case of `COc1cc2[nH]c(Nc3cc(CNC(=O)C4(C(F)(F)F)CC4)ccc3C(F)(F)F)nc2cc1C(=O)N[C@H]1CC[C@H](C(F)(F)F)CC1` [Example 93, N-(trans-4-Trifluoromethyl-cyclohex-1-yl)-2-(2-trifluoromethyl-5-{[(1-trifluoromethylcyclopropane-carbonyl)amino]-methyl}-phenylamino)-6-methoxy-1H-benzimidazole-5-carboxylic acid amide], the pIC50 is 8.70.
